Test results: PMC9120017, “Inhibition mechanism of the chloride channel TMEM16A by the pore blocker 1PBC” (Nature Communications, 2022)
Read-outs that look alike come from different tables or passages of the source.

Target: T1, mouse TMEM16A mutant T518A (Mus musculus, UniProt Q8BHY3, T518A)
T1 construct: expressed in transfected cells; host or cells: HEK293T
T1 sequence (Q8BHY3 1-960 T518A): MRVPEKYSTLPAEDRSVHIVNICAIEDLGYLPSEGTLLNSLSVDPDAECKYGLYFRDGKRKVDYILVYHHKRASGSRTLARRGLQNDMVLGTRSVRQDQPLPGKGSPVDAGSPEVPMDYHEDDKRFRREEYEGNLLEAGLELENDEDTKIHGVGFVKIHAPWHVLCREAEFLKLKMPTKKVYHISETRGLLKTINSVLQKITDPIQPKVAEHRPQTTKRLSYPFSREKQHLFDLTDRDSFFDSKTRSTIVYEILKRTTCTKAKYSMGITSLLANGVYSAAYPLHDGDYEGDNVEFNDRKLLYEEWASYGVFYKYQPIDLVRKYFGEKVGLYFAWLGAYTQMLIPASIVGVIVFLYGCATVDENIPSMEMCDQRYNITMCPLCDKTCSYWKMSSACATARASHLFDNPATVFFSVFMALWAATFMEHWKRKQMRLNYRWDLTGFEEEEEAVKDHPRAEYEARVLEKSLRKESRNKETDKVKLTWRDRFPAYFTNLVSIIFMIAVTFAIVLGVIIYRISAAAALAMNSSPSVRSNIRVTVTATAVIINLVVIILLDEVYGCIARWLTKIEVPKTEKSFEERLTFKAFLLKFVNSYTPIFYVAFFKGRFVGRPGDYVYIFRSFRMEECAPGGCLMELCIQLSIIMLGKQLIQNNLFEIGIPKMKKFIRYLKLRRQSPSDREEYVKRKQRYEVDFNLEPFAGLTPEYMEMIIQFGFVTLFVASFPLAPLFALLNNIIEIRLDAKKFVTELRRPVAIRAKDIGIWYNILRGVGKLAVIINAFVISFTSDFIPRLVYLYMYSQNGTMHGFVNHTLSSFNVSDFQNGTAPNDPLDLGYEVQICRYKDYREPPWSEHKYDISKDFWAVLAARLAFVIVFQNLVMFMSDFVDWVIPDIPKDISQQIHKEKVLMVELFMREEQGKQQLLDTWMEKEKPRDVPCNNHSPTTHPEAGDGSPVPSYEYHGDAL
Assay: Inside-out patch recording of 1PBC block, mutant T518A
Format: cell-based
Settings: for remaining activity at 1 µM: 1PBC 1; for remaining activity at 1 µM / remaining activity at 3 µM / remaining activity at 10 µM / remaining activity at 30 µM / remaining activity at 100 µM: read-out: fraction of unblocked current; for remaining activity at 3 µM: 1PBC 3; for remaining activity at 10 µM: 1PBC 10; for remaining activity at 30 µM: 1PBC 30; for remaining activity at 100 µM: 1PBC 100
Description: HEK293T cells (ATCC CRL-1573) were maintained in Dulbecco’s modified Eagle’s medium (DMEM; Sigma-Aldrich) supplemented with 10 U ml^−1 penicillin, 0.1 mg ml^−1 streptomycin (Sigma-Aldrich), 2 mM L-glutamine (Sigma-Aldrich), and 10% FBS (Sigma-Aldrich) in a humidified atmosphere containing 5% CO2 at 37 °C. HEK293S GnTI^− cells (ATCC CRL-3022) were maintained in HyClone HyCell TransFx-H medium (GE Healthcare) supplemented with 10 U ml^−1 penicillin, 0.1 mg ml^−1 streptomycin, 4 mM L-glutamine, 0.15% poloxamer 188 (Sigma-Aldrich), and 1% FBS in an atmosphere containing 5% CO2 at 185 rpm at 37 °C. The ac splice variant of mouse TMEM16A (UniProt ID: Q8BHY3), mouse TMEM16B (UniProt ID: Q8CFW1), or mouse TMEM16F (UniProt ID: Q6P9J9) bearing a 3C cleavage site, a Venus YFP, a Myc tag, and a Streptavidin-binding peptide (SBP) downstream of the open reading frame in a modified pcDNA3.1 vector (Invitrogen) were used as described previously[21],[31]. Mutations were introduced using a modified QuikChange method[58] and were verified by sequencing.
HEK293T cells were transfected with 3–4 μg DNA per 6 cm Petri dish using the calcium phosphate co-precipitation method and were used within 24–96 h after transfection. Recordings were performed on inside-out patches excised from HEK293T cells expressing the construct of interest. Patch pipettes were pulled from borosilicate glass capillaries (O.D. 1.5 mm, I.D. 0.86 mm, Sutter Instrument) and were fire-polished with a microforge (Narishige) before use. Pipette resistance was typically 3–8 MΩ when filled with the recording solutions detailed below. Seal resistance was typically 4 GΩ or higher. Voltage-clamp recordings were made using Axopatch 200B, Digidata 1550, and Clampex 10.7 (Molecular Devices). Analog signals were filtered with the in-built 4-pole Bessel filter at 10 kHz and were digitized at 20 kHz. Solution exchange was achieved using a gravity-fed system through a theta glass pipette mounted on an ultra-fast piezo-driven stepper (Siskiyou). […] All recordings were performed at 20 °C.
A symmetrical ionic condition was used throughout. Stock solution with Ca^2+-EGTA contained 150 mM NaCl, 5.99 mM Ca(OH)2, 5 mM EGTA, and 10 mM HEPES at pH 7.40. Stock solution with EGTA contained 150 mM NaCl, 5 mM EGTA, and 10 mM HEPES at pH 7.40. Free Ca^2+ concentrations were adjusted by mixing the stock solutions at the required ratios calculated using the WEBMAXC program (http://web.stanford.edu/~cpatton/webmaxcS.htm). Patch pipettes were filled with the stock solution with Ca^2+-EGTA, which has a free Ca^2+ concentration of 1 mM. 1PBC (ChemBridge) stock was reconstituted in anhydrous DMSO (Sigma-Aldrich) at 100 mM and stored at −20 °C. Working solutions with 1PBC were prepared by serial dilution. Unless otherwise stated, experiments were performed at a saturating Ca^2+ concentration as shown in Supplementary Table 1 and the primary data were corrected for current rundown as described previously[21],[25].
Concentration-response relations, obtained from the ratio of the I-V plots before and after the application of the blocker, were fitted to the Hill equation,1 I/Imax=1/1+IC50/[blocker]^h where I/Imax is the normalized current responses, IC50 defines the concentration at which inhibition is at its half-maximum, and h is the Hill coefficient.

IC50 (0 mV, 2 µM Ca2+): 5.67 µM
remaining activity at 1 µM (0 mV): 82.6%
remaining activity at 1 µM (20 mV): 78.8%
remaining activity at 1 µM (40 mV): 75.1%
remaining activity at 1 µM (60 mV): 71.9%
remaining activity at 1 µM (80 mV): 70.2%
remaining activity at 1 µM (100 mV): 70.4%
remaining activity at 1 µM (120 mV): 72.2%
remaining activity at 1 µM (140 mV): 76.4%
remaining activity at 1 µM (-20 mV): 86.3%
remaining activity at 1 µM (-40 mV): 90%
remaining activity at 1 µM (-60 mV): 91.9%
remaining activity at 1 µM (-80 mV): 93.5%
remaining activity at 1 µM (-100 mV): 95.1%
remaining activity at 1 µM (-120 mV): 96.6%
remaining activity at 1 µM (-140 mV): 98%
remaining activity at 3 µM (0 mV): 65.6%
remaining activity at 3 µM (20 mV): 60.1%
remaining activity at 3 µM (40 mV): 54.5%
remaining activity at 3 µM (60 mV): 51%
remaining activity at 3 µM (80 mV): 47.8%
remaining activity at 3 µM (100 mV): 46.3%
remaining activity at 3 µM (120 mV): 47.6%
remaining activity at 3 µM (140 mV): 50.5%
remaining activity at 3 µM (-20 mV): 71.2%
remaining activity at 3 µM (-40 mV): 76.7%
remaining activity at 3 µM (-60 mV): 81.4%
remaining activity at 3 µM (-80 mV): 84.1%
remaining activity at 3 µM (-100 mV): 87.3%
remaining activity at 3 µM (-120 mV): 90.5%
remaining activity at 3 µM (-140 mV): 92.2%
remaining activity at 10 µM (0 mV): 36.7%
remaining activity at 10 µM (20 mV): 31%
remaining activity at 10 µM (40 mV): 26.8%
remaining activity at 10 µM (60 mV): 24%
remaining activity at 10 µM (80 mV): 22.2%
remaining activity at 10 µM (100 mV): 21.1%
remaining activity at 10 µM (120 mV): 21.2%
remaining activity at 10 µM (140 mV): 22.5%
remaining activity at 10 µM (-20 mV): 42.4%
remaining activity at 10 µM (-40 mV): 48.9%
remaining activity at 10 µM (-60 mV): 54.9%
remaining activity at 10 µM (-80 mV): 59.5%
remaining activity at 10 µM (-100 mV): 64.7%
remaining activity at 10 µM (-120 mV): 68.5%
remaining activity at 10 µM (-140 mV): 71.3%
remaining activity at 30 µM (0 mV): 16.5%
remaining activity at 30 µM (20 mV): 13.3%
remaining activity at 30 µM (40 mV): 11.5%
remaining activity at 30 µM (60 mV): 10.1%
remaining activity at 30 µM (80 mV): 9.34%
remaining activity at 30 µM (100 mV): 8.78%
remaining activity at 30 µM (120 mV): 9.07%
remaining activity at 30 µM (140 mV): 9.98%
remaining activity at 30 µM (-20 mV): 19.7%
remaining activity at 30 µM (-40 mV): 23%
remaining activity at 30 µM (-60 mV): 27.8%
remaining activity at 30 µM (-80 mV): 31.9%
remaining activity at 30 µM (-100 mV): 35.9%
remaining activity at 30 µM (-120 mV): 39.5%
remaining activity at 30 µM (-140 mV): 43.5%
remaining activity at 100 µM (0 mV): 6.52%
remaining activity at 100 µM (20 mV): 4.86%
remaining activity at 100 µM (40 mV): 3.97%
remaining activity at 100 µM (60 mV): 3.5%
remaining activity at 100 µM (80 mV): 3.13%
remaining activity at 100 µM (100 mV): 2.74%
remaining activity at 100 µM (120 mV): 2.48%
remaining activity at 100 µM (140 mV): 2.4%
remaining activity at 100 µM (-20 mV): 8.19%
remaining activity at 100 µM (-40 mV): 9.29%
remaining activity at 100 µM (-60 mV): 11.5%
remaining activity at 100 µM (-80 mV): 13.7%
remaining activity at 100 µM (-100 mV): 16.6%
remaining activity at 100 µM (-120 mV): 18.8%
remaining activity at 100 µM (-140 mV): 21.5%
IC50 (20 mV, 2 µM Ca2+): 4.37 µM
IC50 (40 mV, 2 µM Ca2+): 3.5 µM
IC50 (60 mV, 2 µM Ca2+): 2.99 µM
log-fold IC50 (change of mutant vs WT) (80 mV): 0.1093
IC50 (80 mV, 2 µM Ca2+): 2.66 µM
IC50 (100 mV, 2 µM Ca2+): 2.55 µM
IC50 (120 mV, 2 µM Ca2+): 2.69 µM
IC50 (140 mV, 2 µM Ca2+): 3.08 µM
IC50 (-20 mV, 2 µM Ca2+): 7.32 µM
IC50 (-40 mV, 2 µM Ca2+): 9.5 µM
IC50 (-60 mV, 2 µM Ca2+): 12.2 µM
IC50 (-80 mV, 2 µM Ca2+): 14.7 µM
IC50 (-100 mV, 2 µM Ca2+): 18.1 µM
IC50 (-120 mV, 2 µM Ca2+): 21.5 µM
IC50 (-140 mV, 2 µM Ca2+): 25.1 µM
IC50 (T518A, V 0 mV): 5.67 µM
IC50 (T518A, V 20 mV): 4.37 µM
IC50 (T518A, V 40 mV): 3.5 µM
IC50 (T518A, V 60 mV): 2.99 µM
IC50 (T518A, V 80 mV): 2.66 µM
IC50 (T518A, V 100 mV): 2.55 µM
IC50 (T518A, V 120 mV): 2.69 µM
IC50 (T518A, V 140 mV): 3.08 µM
IC50 (T518A, V -20 mV): 7.32 µM
IC50 (T518A, V -40 mV): 9.5 µM
IC50 (T518A, V -60 mV): 12.2 µM
IC50 (T518A, V -80 mV): 14.7 µM
IC50 (T518A, V -100 mV): 18.1 µM
IC50 (T518A, V -120 mV): 21.5 µM
IC50 (T518A, V -140 mV): 25.1 µM
SMILES: N#Cc1c(C(F)(F)F)cc(O)n2c1nc1ccccc12 [1PBC]
